Experimental data reported in patent US8440654B2, “Thieno- and furo-pyrimidine modulators of the histamine H4 receptor” (Janssen Pharmaceutica NV, priority 2007, dated 2013).
Structures can show the parent of a compound that is named as a salt.

The compounds below were run against T1, human histamine H4 receptor (Homo sapiens, UniProt Q9H3N8) (assay: Binding Assay on Recombinant Human Histamine H4 Receptor). Conditions: competition binding with 3H-histamine, membranes of SK-N-MC or COS7 cells transfected with human H4R; average of results obtained.
T1 construct: expressed in transfected cells; host or cells: SK-N-MC cells or COS7 cells, transiently transfected with pH4R; membrane preparation
Protocol: Biological Methods: Binding Assay on Recombinant Human Histamine H4 Receptor.
SK-N-MC cells or COS7 cells were transiently transfected with pH4R and grown in 150 cm^2 tissue culture dishes. Cells were washed with saline solution, scraped with a cell scraper and collected by centrifugation (1000 rpm, 5 min). Cell membranes were prepared by homogenization of the cell pellet in 20 mM Tris-HCl with a polytron tissue homogenizer for 10 sec at high speed. Homogenate was centrifuged at 1000 rpm for 5 min at 4° C. The supernatant was then collected and centrifuged at 20,000×g for 25 min at 4° C. The final pellet was resuspended in 50 mM Tris-HCl. Cell membranes were incubated with ^3H-histamine (5-70 nM) in the presence or absence of excess histamine (10,000 nM). Incubation occurred at room temperature for 45 min. Membranes were harvested by rapid filtration over Whatman GF/C filters and washed 4 times with ice-cold 50 mM Tris HCl. Filters were then dried, mixed with scintillant and counted for radioactivity. SK-N-MC or COS7 cells expressing human histamine H4 receptor were used to measure the affinity of binding of other compounds and their ability to displace ^3H-ligand binding by incubating the above-described reaction in the presence of various concentrations of inhibitor or compound to be tested. For competition binding studies using ^3H-histamine, K values were calculated, based on an experimentally determined KD value of 5 nM and a ligand concentration of 5 nM, according to Y.-C.

T1 sequence (Q9H3N8 whole entry): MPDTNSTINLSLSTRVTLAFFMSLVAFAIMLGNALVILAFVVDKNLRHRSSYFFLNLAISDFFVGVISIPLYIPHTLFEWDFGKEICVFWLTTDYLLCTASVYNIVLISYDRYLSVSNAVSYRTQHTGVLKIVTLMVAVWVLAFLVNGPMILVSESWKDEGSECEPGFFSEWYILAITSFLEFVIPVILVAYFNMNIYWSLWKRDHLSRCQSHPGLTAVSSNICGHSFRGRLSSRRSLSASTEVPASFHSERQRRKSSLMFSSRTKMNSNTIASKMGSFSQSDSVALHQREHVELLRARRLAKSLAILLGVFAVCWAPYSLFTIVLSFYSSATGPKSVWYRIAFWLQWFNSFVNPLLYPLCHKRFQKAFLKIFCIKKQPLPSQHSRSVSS

Compound	Ki
Nc1nc(N2CCn3cnnc3C2)c2sc3c(c2n1)CCCC3 [Example 54, 4-(5,6-Dihydro[1,2,4-a]pyrazin-7(8H)-yl)-6,7,8,9-tetrahydro[1]benzothieno[3,2-d]pyrimidin-2-amine trifluoroacetic acid salt]	1610 nM
Nc1nc(N2C[C@H]3CNC[C@H]3C2)c2sc3c(c2n1)CCCC3 [Example 33]	390 nM
Nc1nc(N2CC(N)C2)c2sc3c(c2n1)CC(F)(F)CC3 [Example 120, 4-(3-Aminoazetidin-1-yl)-8,8-difluoro-6,7,8,9-tetrahydro[1]benzothieno[3,2-d]pyrimidin-2-amine (free amine)]	170 nM
NCCNc1ncnc2c3c(oc12)CCCC3 [Example 27, N-(6,7,8,9-Tetra-hydro[1]benzofuro[3,2-d]pyrimidin-4-yl]ethane-1,2-diamine]	> 10000 nM
CN(CCN)c1nc(N)nc2c3c(sc12)CCC(C)(C)C3 [Example 133, N^4-(2-Aminoethyl)-N^4,8,8-trimethyl-6,7,8,9-tetrahydro[1]benzothieno[3,2-d]pyrimidine-2,4-diamine trifluoroacetate]	54 nM
CN[C@H]1CCN(c2nc(N)nc3c4c(sc23)CCC(C)(C)C4)C1 [Example 135, 8,8-Dimethyl-4-[(3S)-3-(methylamino)pyrrolidin-1-yl]-6,7,8,9-tetrahydro[1]benzothieno[3,2-d]pyrimidin-2-amine hydrochloride]	35 nM
CN1CCN(c2nc(N)nc3c4c(sc23)CCCC4)CC1 [Example 2, 4-(4-Methyl-piperazin-1-yl)-6,7,8,9-tetrahydro-benzo[4,5]thieno[3,2-d]pyrimidin-2-ylamine]	13 nM
Nc1nc(N2CC[C@@H](N)C2)c2oc3c(c2n1)CCCC3 [Example 24, 4-[(3R)-3-Aminopyrrolidin-1-yl-6,7,8,9-tetra-hydro[1]benzofuro[3,2-d]pyrimidin-2-aminetrifluoroacetic acid salt]	2 nM
Nc1nc(N2CCC(N)C2)c2sc3c(c2n1)CCCC3 (stereo in doubt) [Example 56, 4-[(3R)-3-Aminopyrrolidin-1-yl]-6,7,8,9-tetrahy-dro[1]benzothieno[3,2-d]pyrimidin-2-amine trifluoracetic acid salt]	10 nM
CNC1CCN(c2nc(N)nc3c(Br)csc23)C1 (stereo in doubt) [Example 14, 7-Bromo-4-(3R)-3-(methyl-amino)pyrrolidin-1-yl-d]pyrimidin-2-amine tri-fluoroacetic acid salt]	1050 nM
Nc1nc(N2C[C@H]3C[C@@H]2CN3)c2sc3c(c2n1)CCCC3 [Example 36, 4-[(1R,4R)-2,5-Diazabicy-clo[2.2.1]hept-2-yl]-6,7,8,9-tetrahydro[1]benzothi-eno[3,2-d]pyrimidin-2-amine]	> 10000 nM
CN[C@@H]1CCN(c2nc(N)nc3c4c(oc23)CCC(C)(C)C4)C1 [Example 137, 8,8-Dimethyl-4-[(3R)-3-(methylamino)pyrrolidin-1-yl]-6,7,8,9-tetrahydro[1]benzofuro[3,2-d]pyrimidin-2-amine hydrochloride]	18 nM
Nc1nc(N2CC[C@H](N)C2)c2sc3c(c2n1)CC(F)(F)CC3 [Example 119, 4-[(3S)-3-Aminopyrrolidin-1-yl]-8,8-difluoro-6,7,8,9-tetrahydro[1]benzothieno[3,2-d]pyrimidin-2-amine hydrochloride]	21 nM
Nc1nc(N2CC[C@@H](N)C2)c2sc3c(c2n1)CC(F)(F)CC3 [Example 113, 4-[(3R)-3-Aminopyrrolidin-1-yl]-8,8-difluoro-6,7,8,9-tetrahydro[1]benzothieno[3,2-d]pyrimidin-2-amine hydrochloride]	1.1 nM
(3R)-N-Methyl-1-(6,7,8,9- tetrahydro[1]benzo- thieno[3,2-d]pyrimidin-4- yl)pyrrolidin-3-amine [Example 30]	145 nM
Nc1nc(N2CC(N)C2)c2oc3c(c2n1)CC(F)(F)CC3 [Example 127, 4-(3-Aminoazetidin-1-yl)-8,8-difluoro-6,7,8,9-tetrahydro[1]benzofuro[3,2-d]pyrimidin-2-amine hydrochloride]	64 nM
Nc1nc(N2CCNCC2)c2sc3c(c2n1)CC(F)(F)CC3 [Example 58, 8,8-Difluoro-4-piperazin-1-yl-6,7,8,9-tetrahydro[1]ben-zothieno[3,2-d]pyrimidin-2-amine trifluoroacetic acid salt]	14 nM
CC(C)(C)c1cc2nc(N)nc(N3CC4CCCNC4C3)c2s1 (centres unmarked) [Example 19, 6-tert-Butyl-4-(octahydro-6H-pyrrolo[3,4-b]pyridin-6-yl)thieno[3,2-d]pyrimidin-2-amine trifluoroacetic acid salt]	244 nM

Compound	Ki
Nc1nc(N2C[C@H]3CCCN[C@H]3C2)c2oc3c(c2n1)CCCC3 [Example 20, 4-[(4aR,7aR)-Octahydro-6H-pyrrolo[3,4-b]pyridin-6-yl]-6,7,8,9-tetra-hydro[1]benzofuro[3,2-d]pyrimidin-2-amine trifluoroacetic acid salt]	5 nM
c1nc(N2CCNCC2)c2oc3c(c2n1)CCCC3 [Example 9, 4-piperazin-1-yl-6,7,8,9-tetrahydro-benzo[4,5]furo[3,2-d]pyrimidine]	110 nM
CC1CCc2sc3c(N4C[C@H]5CCCN[C@H]5C4)nc(N)nc3c2C1 (stereo partly drawn) [Example 45, 8-Methyl-4-[(4aR,7aR)-octa-hydro-6H-pyrrolo-[3,4-b]pyridin-6-yl]-6,7,8,9-tetra-hydro[1]benzothieno[3,2-d]pyrimidin-2-amine trifluoroacetic acid salt]	4 nM
CC(C)N1CCN(c2nc(N)nc3c4c(sc23)CCCC4)CC1 [Example 50, 4-[4-(1-Methylethyl)piper-azin-1-yl]-6,7,8,9-tetrahy-dro[1]benzothieno[3,2-d]pyrimidin-2-amine trifluoroacetic acid salt]	647 nM
Nc1nc(N2CCNCC2)c2oc3c(c2n1)CCCC3 [Example 6, 4-piperazin-1-yl-6,7,8,9-tetrahydro-benzo[4,5]furo[3,2-d]pyrimidin-2-ylamine]	5 nM
Nc1nc(N2CCCNCC2)c2sc3c(c2n1)CCCC3 [Example 37, 4-(1,4-Diazepan-1-yl)-6,7,8,9-tetrahydro[1]benzo-thieno[3,2-d]pyrimidin-2-amine hydrochloric acid salt]	15 nM
CC1CCc2sc3c(N4CCN(C)CC4)nc(N)nc3c2C1 (centres unmarked) [Example 43, 8-Methyl-4-(4-methyl-piperazin-1-yl)-6,7,8,9-tetrahydro[1]benzo-thieno[3,2-d]pyrimidin-2-amine trifluoroacetic acid salt]	7 nM
Nc1nc(N2CCNCC2)c2sc3c(c2n1)CCCC3 [Example 3, 4-piperazin-1-yl-6,7,8,9-tetrahydro-benzo[4,5]thieno[3,2-d]pyrimidin-2-ylamine]	23 nM
CN1CCN(c2nc(N)nc3c4c(oc23)CCCC4)CC1 [Example 5, 4-(4-Methyl-piperazin-1-yl)-6,7,8,9-tetrahydro-benzo[4,5]furo[3,2-d]pyrimidin-2-ylamine]	8 nM
Nc1nc(N2C[C@H]3CCCN[C@H]3C2)c2sc3c(c2n1)CCCC3 [Example 32, 4-[(4aR,7aR)-Octahydro-6H-pyrrolo[3,4-b]pyridin-6-yl]-6,7,8,9-tetrahydro[1]benzo-thieno[3,2-,d]pyrimidin-2-amine]	2 nM
CN[C@H]1CCN(c2nc(N)nc3cc(C(C)(C)C)sc23)C1 [Example 16, trifluoroacetic acid salt]	71 nM
Nc1nc(N2CCN3CCCC3C2)c2sc3c(c2n1)CCCC3 (centres unmarked) [Example 52, 4-(Hexahydropyrrolo[1,2-a]pyrazin-2(1H)-yl-6,7,8,9-tetrahydro[1]benzothieno[3,2-d]pyrimidin-2-aminetrifluoroacetic acid salt]	67 nM
CN1CCN(c2nc(N)nc3cc(C(C)(C)C)sc23)CC1 [Example 15, 6-tert-Butyl-4-(4-methyl-piperazin-1-yl)thieno[3,2-d]pyrimidin-2-amine trifluoroacetic acid salt]	286 nM
CC1(C)CCc2sc3c(N4CCCNCC4)nc(N)nc3c2C1 [Example 132, 4-(1,4-Diazepan-1-yl)-8,8-dimethyl-6,7,8,9-tetrahydro[1]benzothieno[3,2-d]pyrimidin-2-amine trifluoroacetate]	35 nM
Nc1nc(N2CCCNCC2)c2oc3c(c2n1)CCCC3 [Example 22, 4-(1,4-Diazepan-1-yl)-6,7,8,9-tetrahydro[1]benzo-furo[3,2-d]pyrimidin-2-amine trifluoroacetic acid salt]	3 nM
CN[C@@H]1CCN(c2nc(N)nc3c4c(sc23)CCC(F)(F)C4)C1 [Example 59, 8,8-Difluoro-4-[(3R)-3-(methylamino)pyrrolidin-1-yl]-6,7,8,9-tetrahydro[1]benzothieno[3,2-d]pyrimidin-2-amine trifluoroacetic acid salt]	9 nM
CN1C[C@@H]2CN(c3nc(N)nc4c5c(sc34)CCC(F)(F)C5)C[C@@H]2C1 [Example 121, 8,8-Difluoro-4-[(3aR,6aS)-5-methylhexahydropyrrolo[3,4-c]pyrrol-2(1H)-yl]-6,7,8,9-tetrahydro[1]benzothieno[3,2-d]pyrimidin-2-amine (free amine)]	150 nM
